Reference: ChEMBL document CHEMBL4402560, “Sarco/Endoplasmic Reticulum Calcium ATPase Inhibitors: Beyond Anticancer Perspective” (J Med Chem, 2020)
pIC50, pKi: −log10 of the molar value.

Columns and labels:
HeLa = assay: Antiproliferative activity against human HeLa cells; assay type: functional, cell-based
[1] = target: Sarcoplasmic/endoplasmic reticulum calcium ATPase 2 (Mus musculus) (UniProt O55143); assay: Inhibition of SERCA2 in C57BL/6 mouse primary neurons at 30 uM by UV-Vis spectrophotometric method relative to control
[2] = target: Sarcoplasmic/endoplasmic reticulum calcium ATPase 1 (Mus musculus) (UniProt Q8R429); assay: Inhibition of SERCA1 in C57BL/6 mouse primary neurons at 30 uM by UV-Vis spectrophotometric method relative to control
[3] = Inhibition of SERCA (unknown origin); set-up: species or system Homo sapiens
[4] = Inhibition of Sodium/potassium-transporting ATPase in porcine brain peincubated for 5 mins followed by addition of ATP and measured after 15 mins; assay type: tissue-based, Sus scrofa domesticus
[5] = Inhibition of Sodium/potassium-transporting ATPase in dog kidney peincubated for 5 mins followed by addition of ATP and measured after 15 mins; assay type: tissue-based, Canis lupus familiaris
[6] = Inhibition of Sodium/potassium-transporting ATPase in guinea pig brain peincubated for 5 mins followed by addition of ATP and measured after 15 mins; assay type: tissue-based, Cavia porcellus
[7] = Inhibition of Sodium/potassium-transporting ATPase in guinea pig heart peincubated for 5 mins followed by addition of ATP and measured after 15 mins; assay type: tissue-based, Cavia porcellus
[8] = Inhibition of fish liver microsomes SERCA by enzyme-coupled method; set-up: species or system Squalius cephalus
[9] = target: T1, Sarcoplasmic/endoplasmic reticulum calcium ATPase 1 (Oryctolagus cuniculus, UniProt P04191); assay: Inhibition of rabbit SERCA1a
[10] = target: Sarcoplasmic/endoplasmic reticulum calcium ATPase 3 (Mus musculus, UniProt Q64518); assay: Inhibition of SERCA3 in mouse testicular microsomes; set-up: species or system Testis
[11] = target: Sarcoplasmic/endoplasmic reticulum calcium ATPase 2 (Mus musculus, UniProt O55143); assay: Inhibition of SERCA2b in mouse testicular microsomes; set-up: species or system Testis
[12] = target: T1, Sarcoplasmic/endoplasmic reticulum calcium ATPase 1; assay: Inhibition of SERCA1a in rabbit microsomes
[13] = Inhibition of rabbit skeletal muscle microsomes SERCA incubated for 3 mins by [gamma32P]ATP based radiometric assay; set-up: species or system Oryctolagus cuniculus
[14] = target: T1, Sarcoplasmic/endoplasmic reticulum calcium ATPase 1; assay: Inhibition of rabbit skeletal muscle microsomes SERCA1a incubated for 10 mins by enzyme-coupled method
[15] = target: Sarcoplasmic/endoplasmic reticulum calcium ATPase 1 (Homo sapiens, UniProt O14983); assay: Inhibition of SERCA1a (unknown origin) incubated for 10 mins by enzyme-coupled method
[16] = target: Sodium/potassium-transporting ATPase; assay: Competitive inhibition of Sodium/potassium-transporting ATPase (unknown origin) by liquid scintillation counting method; assay type: protein-complex assay, Homo sapiens
[17] = Competitive inhibition of SERCA (unknown origin) by liquid scintillation counting method; set-up: species or system Homo sapiens
[18] = target: T1, Sarcoplasmic/endoplasmic reticulum calcium ATPase 1; assay: Inhibition of rabbit skeletal muscle microsomes SERCA1a
Oryctolagus cuniculus [19] = species: Oryctolagus cuniculus; assay: Inhibition of rabbit kidney Sodium/potassium-transporting ATPase by malachite green based colorimetric method
Oryctolagus cuniculus [20] = species: Oryctolagus cuniculus; assay: Inhibition of rabbit kidney Sodium/potassium-transporting ATPase by PK/LDH method
[21] = target: Potassium-transporting ATPase (Sus scrofa, UniProt P19156); assay: Inhibition of pig gastric mucosa Potassium-transporting ATPase by malachite green based colorimetric method; assay type: protein-complex assay, Sus scrofa domesticus
[22] = Inhibition of SERCA in chicken cerebellar microsomes; set-up: species or system Gallus gallus, Cerebellum
[23] = Inhibition of porcine cerebellar microsomes SERCA2b incubated for 10 mins by enzyme-coupled method; set-up: species or system Sus scrofa domesticus, Cerebellum
[24] = target: T1, Sarcoplasmic/endoplasmic reticulum calcium ATPase 1; assay: Inhibition of rabbit SERCA1a incubated for 10 mins by enzyme-coupled method

T1 sequence (P04191 whole entry): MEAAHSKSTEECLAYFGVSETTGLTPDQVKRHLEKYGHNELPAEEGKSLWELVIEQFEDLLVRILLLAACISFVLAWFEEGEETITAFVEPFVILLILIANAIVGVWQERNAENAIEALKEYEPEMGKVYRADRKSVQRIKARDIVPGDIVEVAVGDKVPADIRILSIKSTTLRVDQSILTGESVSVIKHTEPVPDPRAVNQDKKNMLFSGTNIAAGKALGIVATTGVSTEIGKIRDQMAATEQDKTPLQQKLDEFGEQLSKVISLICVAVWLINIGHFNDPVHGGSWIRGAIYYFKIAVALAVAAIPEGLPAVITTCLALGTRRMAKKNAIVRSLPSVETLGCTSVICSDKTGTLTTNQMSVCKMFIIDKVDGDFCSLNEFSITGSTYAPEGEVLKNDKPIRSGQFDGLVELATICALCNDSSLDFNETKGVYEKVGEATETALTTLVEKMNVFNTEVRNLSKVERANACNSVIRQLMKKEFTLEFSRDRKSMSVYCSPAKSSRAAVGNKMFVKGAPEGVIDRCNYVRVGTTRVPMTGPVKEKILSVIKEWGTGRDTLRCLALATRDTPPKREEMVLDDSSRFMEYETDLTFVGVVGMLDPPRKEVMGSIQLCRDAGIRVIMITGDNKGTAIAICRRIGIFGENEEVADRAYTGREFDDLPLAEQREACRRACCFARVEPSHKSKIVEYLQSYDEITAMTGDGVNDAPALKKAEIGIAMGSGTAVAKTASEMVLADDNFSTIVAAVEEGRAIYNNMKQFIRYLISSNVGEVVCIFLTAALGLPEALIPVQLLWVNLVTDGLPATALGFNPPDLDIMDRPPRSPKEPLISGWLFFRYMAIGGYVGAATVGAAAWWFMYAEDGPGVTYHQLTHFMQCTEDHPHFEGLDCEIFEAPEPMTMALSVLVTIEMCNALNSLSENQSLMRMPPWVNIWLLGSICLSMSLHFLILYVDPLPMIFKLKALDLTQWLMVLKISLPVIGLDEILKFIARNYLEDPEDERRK
Chain of Sarcoplasmic/endoplasmic reticulum calcium ATPase 1 (Homo sapiens, UniProt O14983) (O14983 whole entry): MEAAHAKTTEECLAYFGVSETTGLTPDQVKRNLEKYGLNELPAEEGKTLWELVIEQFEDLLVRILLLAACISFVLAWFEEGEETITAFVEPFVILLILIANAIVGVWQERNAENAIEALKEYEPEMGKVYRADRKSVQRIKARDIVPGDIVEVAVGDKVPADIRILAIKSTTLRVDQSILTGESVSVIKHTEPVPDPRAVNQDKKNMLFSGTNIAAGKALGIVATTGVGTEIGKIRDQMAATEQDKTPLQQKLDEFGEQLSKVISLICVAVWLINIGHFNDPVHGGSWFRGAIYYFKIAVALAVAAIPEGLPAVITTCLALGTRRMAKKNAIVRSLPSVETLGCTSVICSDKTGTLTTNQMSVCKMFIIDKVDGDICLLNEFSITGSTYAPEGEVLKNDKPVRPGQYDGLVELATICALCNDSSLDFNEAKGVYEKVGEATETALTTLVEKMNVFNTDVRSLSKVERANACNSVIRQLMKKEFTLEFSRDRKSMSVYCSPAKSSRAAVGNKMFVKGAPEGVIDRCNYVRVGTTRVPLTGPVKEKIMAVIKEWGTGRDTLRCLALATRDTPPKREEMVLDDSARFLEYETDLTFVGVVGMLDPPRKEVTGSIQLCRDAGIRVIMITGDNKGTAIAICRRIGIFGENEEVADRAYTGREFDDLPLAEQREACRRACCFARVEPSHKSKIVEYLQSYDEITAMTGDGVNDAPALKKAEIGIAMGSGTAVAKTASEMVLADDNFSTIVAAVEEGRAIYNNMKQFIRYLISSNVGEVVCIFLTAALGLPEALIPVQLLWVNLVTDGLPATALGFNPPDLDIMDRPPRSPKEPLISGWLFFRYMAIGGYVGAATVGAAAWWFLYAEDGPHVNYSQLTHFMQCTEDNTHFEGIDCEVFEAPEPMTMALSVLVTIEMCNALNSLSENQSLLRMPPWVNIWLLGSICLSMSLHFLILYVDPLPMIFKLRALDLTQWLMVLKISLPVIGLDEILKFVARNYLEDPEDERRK
Chain of Sarcoplasmic/endoplasmic reticulum calcium ATPase 1 (Mus musculus) (Q8R429 whole entry): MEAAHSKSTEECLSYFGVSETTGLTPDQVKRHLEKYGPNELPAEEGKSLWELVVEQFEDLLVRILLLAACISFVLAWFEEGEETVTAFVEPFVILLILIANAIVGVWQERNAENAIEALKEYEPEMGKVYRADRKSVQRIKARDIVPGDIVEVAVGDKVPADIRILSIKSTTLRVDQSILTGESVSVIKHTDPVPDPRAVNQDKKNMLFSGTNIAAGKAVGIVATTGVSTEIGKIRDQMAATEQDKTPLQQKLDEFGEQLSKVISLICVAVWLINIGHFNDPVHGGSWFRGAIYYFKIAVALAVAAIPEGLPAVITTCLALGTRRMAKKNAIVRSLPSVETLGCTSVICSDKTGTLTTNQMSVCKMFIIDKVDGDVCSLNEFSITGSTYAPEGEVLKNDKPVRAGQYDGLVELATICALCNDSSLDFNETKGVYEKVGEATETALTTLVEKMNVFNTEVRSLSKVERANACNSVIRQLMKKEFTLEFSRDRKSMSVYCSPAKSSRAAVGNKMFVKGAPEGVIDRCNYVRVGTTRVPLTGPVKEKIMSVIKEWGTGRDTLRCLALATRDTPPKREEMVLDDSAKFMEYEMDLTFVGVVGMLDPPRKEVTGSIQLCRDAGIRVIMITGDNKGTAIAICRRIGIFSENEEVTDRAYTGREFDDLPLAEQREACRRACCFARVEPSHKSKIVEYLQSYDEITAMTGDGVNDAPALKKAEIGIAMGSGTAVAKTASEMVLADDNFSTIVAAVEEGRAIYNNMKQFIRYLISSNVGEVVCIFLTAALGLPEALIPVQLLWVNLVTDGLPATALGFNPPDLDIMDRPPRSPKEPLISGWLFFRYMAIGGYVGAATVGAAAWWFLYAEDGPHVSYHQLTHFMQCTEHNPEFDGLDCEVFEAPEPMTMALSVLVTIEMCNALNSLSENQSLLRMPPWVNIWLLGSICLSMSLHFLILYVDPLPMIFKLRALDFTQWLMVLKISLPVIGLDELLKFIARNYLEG
Chain of Sarcoplasmic/endoplasmic reticulum calcium ATPase 3 (Q64518 whole entry): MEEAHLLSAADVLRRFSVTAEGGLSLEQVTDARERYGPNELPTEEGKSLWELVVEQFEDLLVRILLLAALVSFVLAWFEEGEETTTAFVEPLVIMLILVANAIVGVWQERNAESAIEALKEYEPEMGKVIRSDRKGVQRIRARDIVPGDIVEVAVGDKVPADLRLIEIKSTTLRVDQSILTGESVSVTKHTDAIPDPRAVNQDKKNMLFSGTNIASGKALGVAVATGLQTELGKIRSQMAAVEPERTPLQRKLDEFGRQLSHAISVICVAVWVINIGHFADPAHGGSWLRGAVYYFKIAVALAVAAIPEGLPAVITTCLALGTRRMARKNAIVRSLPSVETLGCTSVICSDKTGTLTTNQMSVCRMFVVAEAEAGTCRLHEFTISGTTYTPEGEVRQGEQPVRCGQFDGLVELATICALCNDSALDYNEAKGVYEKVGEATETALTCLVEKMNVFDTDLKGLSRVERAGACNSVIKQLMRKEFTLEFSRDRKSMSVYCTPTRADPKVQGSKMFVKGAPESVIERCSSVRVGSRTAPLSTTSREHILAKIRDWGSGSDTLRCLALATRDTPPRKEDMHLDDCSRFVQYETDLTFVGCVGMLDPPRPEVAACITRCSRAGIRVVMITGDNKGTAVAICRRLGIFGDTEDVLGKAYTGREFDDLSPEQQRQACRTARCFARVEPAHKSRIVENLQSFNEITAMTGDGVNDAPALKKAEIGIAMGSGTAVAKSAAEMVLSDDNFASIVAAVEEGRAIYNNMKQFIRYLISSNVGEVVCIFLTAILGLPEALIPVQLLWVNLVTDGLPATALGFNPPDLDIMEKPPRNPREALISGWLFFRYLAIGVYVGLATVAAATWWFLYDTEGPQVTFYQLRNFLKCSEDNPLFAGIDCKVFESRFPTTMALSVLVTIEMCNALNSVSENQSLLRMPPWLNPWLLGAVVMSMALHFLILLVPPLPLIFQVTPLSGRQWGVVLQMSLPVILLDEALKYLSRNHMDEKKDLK
Chain of Sarcoplasmic/endoplasmic reticulum calcium ATPase 2 (Mus musculus) (O55143 whole entry): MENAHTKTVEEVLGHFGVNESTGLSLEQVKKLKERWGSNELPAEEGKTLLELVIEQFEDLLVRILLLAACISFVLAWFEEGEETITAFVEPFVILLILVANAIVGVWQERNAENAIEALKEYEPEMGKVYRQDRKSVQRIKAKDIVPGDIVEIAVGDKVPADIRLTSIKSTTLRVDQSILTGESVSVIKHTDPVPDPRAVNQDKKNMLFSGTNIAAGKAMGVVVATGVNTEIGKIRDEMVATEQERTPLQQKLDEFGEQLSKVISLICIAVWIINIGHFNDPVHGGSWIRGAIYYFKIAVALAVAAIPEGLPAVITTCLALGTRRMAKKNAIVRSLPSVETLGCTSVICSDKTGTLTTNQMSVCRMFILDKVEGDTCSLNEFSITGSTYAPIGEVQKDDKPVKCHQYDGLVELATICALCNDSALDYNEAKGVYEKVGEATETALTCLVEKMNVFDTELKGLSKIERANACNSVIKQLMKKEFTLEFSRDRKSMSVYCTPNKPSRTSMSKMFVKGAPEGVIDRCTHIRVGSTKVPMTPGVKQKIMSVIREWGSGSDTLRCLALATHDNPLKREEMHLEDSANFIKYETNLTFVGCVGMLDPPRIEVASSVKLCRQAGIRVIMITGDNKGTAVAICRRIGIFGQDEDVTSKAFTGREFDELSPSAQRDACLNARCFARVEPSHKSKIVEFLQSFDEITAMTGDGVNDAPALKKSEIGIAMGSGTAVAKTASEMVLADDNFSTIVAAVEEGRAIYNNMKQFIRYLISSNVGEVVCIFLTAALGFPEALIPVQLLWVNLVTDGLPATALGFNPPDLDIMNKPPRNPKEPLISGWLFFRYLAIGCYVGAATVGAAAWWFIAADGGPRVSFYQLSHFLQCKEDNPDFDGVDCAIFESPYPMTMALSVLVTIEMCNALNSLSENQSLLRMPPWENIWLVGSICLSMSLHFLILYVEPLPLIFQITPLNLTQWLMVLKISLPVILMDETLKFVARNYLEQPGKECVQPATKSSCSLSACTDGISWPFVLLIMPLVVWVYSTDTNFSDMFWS
Chain of Sarcoplasmic/endoplasmic reticulum calcium ATPase 2 (O55143 whole entry): as above

C[C@H]1O[C@@H](O[C@H]2CC[C@@]3(C)[C@@H](CC[C@]4(C)[C@@H]3C=C[C@]35OC[C@@]6(CCC(C)(C)C[C@H]63)[C@H](O)C[C@]54C)[C@]2(C)CO)[C@H](O)[C@@H](O[C@@H]2O[C@H](CO)[C@@H](O)[C@H](O)[C@H]2O)[C@H]1O
pIC50 (HeLa): 5.00 | inhibition [1]: 18% | inhibition [2]: 10% | pIC50 [3]: 4.30

CC1=CCC[C@@H]2[C@@](C)(CC/C(C)=C/Cn3c[n+](C)c4ncnc(N)c43)[C@H](C)CC[C@@]12C
pIC50 [4]: 4.54 to 4.96 | pIC50 [5]: 4.54 to 4.96 | pIC50 [6]: 4.54 to 4.96 | pIC50 [3]: 5.25 | pIC50 [7]: 4.54 to 4.96

CCCCCCCCCc1ccc(O)cc1 [4-NONYLPHENOL]
pIC50 [8]: 5.40 | pIC50 [9]: 5.22 to 6.46 | pIC50 [10]: 5.22 to 6.46 | pIC50 [11]: 5.22 to 6.46 | pIC50 [12]: 5.22 to 6.46

COc1ccc2c(c[n+](C)c3c4cc5c(cc4ccc23)OCO5)c1OC [CHELERYTHRINE]
pIC50 [13]: 5.82 | pIC50 [14]: 5.92 | pIC50 [15]: 4.57

N=C(N)SCc1cc(CSC(=N)N)c(Br)c(CSC(=N)N)c1Br
pKi [16]: 6.49 | pKi [17]: 4.70 | pIC50 [18]: 4.54

Clc1ccccc1C(c1ccccc1)(c1ccccc1)n1ccnc1 [CLOTRIMAZOLE]
K0.5 (Oryctolagus cuniculus [19]): 24 to 30 µM | K0.5 (Oryctolagus cuniculus [20]): 24 to 30 µM | pIC50 [21]: 5.28

SODIUM ORTHOVANAD
pIC50 [22]: 4.00 to 5.00

Clc1ccc(C(c2ccc(Cl)cc2)[n+]2ccn(CC(OCc3ccc(Cl)cc3Cl)c3ccc(Cl)cc3Cl)c2)cc1 (configuration not stated) [CALMIDAZOLIUM CHLORIDE]
pIC50 [14]: 6.30 | pIC50 [23]: 6.30

C/C=C(\C)C(=O)O[C@@H]1C[C@H]2C(=C1C)[C@@H]1OC(=O)[C@@](C)(O)[C@@]1(O)[C@@H](OC(=O)[C@H](C)CC)C[C@@]2(C)OC(C)=O
pIC50 [24]: 4.70
